Results from PMC8286840, “Identifying SARS-CoV-2 antiviral compounds by screening for small molecule inhibitors of Nsp3 papain-like protease” (Biochemical Journal, 2021).
Counter-ions that a name gives are not always drawn. Like-named read-outs stand apart in the source and are kept apart here.

Experiments:
[1] = target: T1, SARS-CoV-2 PLpro (nsp3 1564–1878) (Severe acute respiratory syndrome coronavirus 2, UniProt P0DTD1); assay: biochemical; design: FRET-quenched peptide (Pro3) cleavage by PLpro, 10 min pre-incubation, slope over 20 min, normalised to no-compound control; conditions: high concentration screen, read-out: % of control remaining
[2] = target: T1, SARS-CoV-2 PLpro (nsp3 1564–1878); assay: biochemical; design: FRET-quenched peptide (Pro3) cleavage by PLpro, 10 min pre-incubation, slope over 20 min, normalised to no-compound control; conditions: low concentration screen, read-out: % of control remaining

CCN(CCCCOC(=O)c1ccc(OC)c(OC)c1)C(C)Cc1ccc(OC)cc1 (centres unmarked) [Mebeverine (hydrochloride)]
remaining activity at 3.75 µM ([1]; Well no.=7048): 101%
remaining activity at 1.25 µM ([2]; Well no.=7048): 108%

CN1CCc2c(c3ccccc3n2Cc2ccccc2)C1 [Mebhydrolin (napadisylate)]
remaining activity at 3.75 µM ([1]; Well no.=7437): 94.1%
remaining activity at 1.25 µM ([2]; Well no.=7437): 99.4%

CNC1(C)C2CCC(C2)C1(C)C (centres unmarked) [Mecamylamine hydrochloride]
remaining activity at 3.75 µM ([1]; Well no.=987): 99.8%
remaining activity at 1.25 µM ([2]; Well no.=987): 98.1%

CNC1(C)C2CCC(C2)C1(C)C (centres unmarked) [Mecamylamine]
remaining activity at 3.75 µM ([1]; Well no.=1556): 102%
remaining activity at 1.25 µM ([2]; Well no.=1556): 103%

CCOC(=O)c1c(C)n(C)c2ccc(O)cc12 [Mecarbinate]
remaining activity at 3.75 µM ([1]; Well no.=4756): 95.8%
remaining activity at 1.25 µM ([2]; Well no.=4756): 98.2%

Cc1ccc(Cl)c(Nc2ccccc2C(=O)O)c1Cl [Meclofenamic acid sodium salt]
remaining activity at 3.75 µM ([1]; Well no.=5492): 106%
remaining activity at 1.25 µM ([2]; Well no.=5492): 104%

Cc1ccc(Cl)c(Nc2ccccc2C(=O)O)c1Cl [Meclofenamic acid sodium]
remaining activity at 3.75 µM ([1]; Well no.=784): 103%
remaining activity at 1.25 µM ([2]; Well no.=784): 103%

Cc1cccc(C(C)c2c[nH]cn2)c1C (centres unmarked) [Medetomidine (hydrochloride)]
remaining activity at 3.75 µM ([1]; Well no.=7479): 99.7%
remaining activity at 1.25 µM ([2]; Well no.=7479): 103%

Cc1cccc(C(C)c2c[nH]cn2)c1C (centres unmarked) [Medetomidine HCl]
remaining activity at 3.75 µM ([1]; Well no.=4927): 100%
remaining activity at 1.25 µM ([2]; Well no.=4927): 99.2%

CC(=O)O[C@]1(C(C)=O)CC[C@H]2[C@@H]3C[C@H](C)C4=CC(=O)CC[C@]4(C)[C@H]3CC[C@@]21C [Medroxyprogesterone 17-Acetate]
remaining activity at 3.75 µM ([1]; Well no.=1949): 104%
remaining activity at 1.25 µM ([2]; Well no.=1949): 103%

Cc1cccc(Nc2ccccc2C(=O)O)c1C [Mefenamic acid]
remaining activity at 3.75 µM ([1]; Well no.=1951): 99.7%
remaining activity at 1.25 µM ([2]; Well no.=1951): 97.7%

CC(=O)O[C@]1(C(C)=O)CC[C@H]2[C@@H]3C=C(C)C4=CC(=O)CC[C@]4(C)[C@H]3CC[C@@]21C [Megestrol Acetate]
remaining activity at 3.75 µM ([1]; Well no.=2236): 93.2%
remaining activity at 1.25 µM ([2]; Well no.=2236): 95%

CNC[C@H](O)[C@@H](O)[C@H](O)[C@H](O)CO [Meglumine]
remaining activity at 3.75 µM ([1]; Well no.=1565): 104%
remaining activity at 1.25 µM ([2]; Well no.=1565): 104%

CN1C(=O)/C(=C2/C(=O)Nc3ccccc32)c2ccccc21 [Meisoindigo]
remaining activity at 3.75 µM ([1]; Well no.=6772): 95%
remaining activity at 1.25 µM ([2]; Well no.=6772): 94.5%

COc1ccc2[nH]cc(CCNC(C)=O)c2c1 [Melatonin]
remaining activity at 3.75 µM ([1]; Well no.=1072): 101%
remaining activity at 3.75 µM ([1]; Well no.=1665): 107%
remaining activity at 3.75 µM ([1]; Well no.=3320): 98.5%
remaining activity at 3.75 µM ([1]; Well no.=6347): 102%
remaining activity at 3.75 µM ([1]; Well no.=6565): 96.1%
remaining activity at 1.25 µM ([2]; Well no.=1072): 98.6%
remaining activity at 1.25 µM ([2]; Well no.=1665): 106%
remaining activity at 1.25 µM ([2]; Well no.=3320): 99.3%
remaining activity at 1.25 µM ([2]; Well no.=3990): 101%
remaining activity at 1.25 µM ([2]; Well no.=6347): 97.8%
remaining activity at 1.25 µM ([2]; Well no.=6565): 103%

C=C1C[C@H]2[C@@H]3C=C(C)C4=CC(=O)CC[C@]4(C)[C@H]3CC[C@]2(C)[C@@]1(OC(C)=O)C(C)=O [Melengestrol Acetate]
remaining activity at 3.75 µM ([1]; Well no.=2238): 99.4%
remaining activity at 1.25 µM ([2]; Well no.=2238): 99.1%

Cc1cnc(NC(=O)C2=C(O)c3ccccc3S(=O)(=O)N2C)s1 [Meloxicam sodium]
remaining activity at 3.75 µM ([1]; Well no.=974): 99.2%
remaining activity at 1.25 µM ([2]; Well no.=974): 98.2%

Cc1cnc(NC(=O)C2=C(O)c3ccccc3S(=O)(=O)N2C)s1 [Meloxicam]
remaining activity at 3.75 µM ([1]; Well no.=1578): 96.6%
remaining activity at 1.25 µM ([2]; Well no.=1578): 94.4%

N[C@@H](Cc1ccc(N(CCCl)CCCl)cc1)C(=O)O [Melphalan]
remaining activity at 3.75 µM ([1]; Well no.=1112): 94.4%
remaining activity at 1.25 µM ([2]; Well no.=1112): 94.4%
remaining activity at 1.25 µM ([2]; Well no.=1953): 100%

CC12CC3CC(C)(C1)CC(N)(C3)C2 [Memantine hydrochloride]
remaining activity at 3.75 µM ([1]; Well no.=1083): 99.3%
remaining activity at 1.25 µM ([2]; Well no.=1083): 97.8%

CC12CC3CC(C)(C1)CC(N)(C3)C2 [Memantine.HCl]
remaining activity at 3.75 µM ([1]; Well no.=1887): 95.2%
remaining activity at 1.25 µM ([2]; Well no.=1887): 94.9%

CC1=CC(=O)c2ccccc2C1=O [Menadione]
remaining activity at 3.75 µM ([1]; Well no.=3372): 96.5%
remaining activity at 3.75 µM ([1]; Well no.=6251): 101%
remaining activity at 1.25 µM ([2]; Well no.=3372): 98.5%
remaining activity at 1.25 µM ([2]; Well no.=6251): 99.2%

C[N+]1(C)CCCC(OC(=O)C(O)(c2ccccc2)c2ccccc2)C1 (centres unmarked) [Mepenzolate (Bromide)]
remaining activity at 3.75 µM ([1]; Well no.=7911): 100%
remaining activity at 1.25 µM ([2]; Well no.=7911): 102%

CCC1(c2ccccc2)NC(=O)N(C)C1=O (centres unmarked) [Mephenytoin]
remaining activity at 3.75 µM ([1]; Well no.=1774): 99.4%
remaining activity at 1.25 µM ([2]; Well no.=1774): 99.1%

Cc1cccc(C)c1NC(=O)C1CCCCN1C (centres unmarked) [Mepivacaine HCl]
remaining activity at 3.75 µM ([1]; Well no.=4981): 101%
remaining activity at 1.25 µM ([2]; Well no.=4981): 99.3%

C[C@H]1C[C@H]2[C@@H]3CCC4=CC(=O)C=C[C@]4(C)[C@H]3C(=O)C[C@]2(C)[C@@]1(O)C(=O)CO [Meprednisone]
remaining activity at 3.75 µM ([1]; Well no.=6509): 102%
remaining activity at 1.25 µM ([2]; Well no.=6509): 101%

CCC1(c2cccc(O)c2)CCCCN(C)C1 (centres unmarked) [Meptazinol (hydrochloride)]
remaining activity at 3.75 µM ([1]; Well no.=6511): 98.2%
remaining activity at 1.25 µM ([2]; Well no.=6511): 102%

CCC1(c2cccc(O)c2)CCCCN(C)C1 (centres unmarked) [Meptazinol HCl]
remaining activity at 3.75 µM ([1]; Well no.=4636): 90.6%
remaining activity at 1.25 µM ([2]; Well no.=4636): 93.5%

COc1ccc(CN(CCN(C)C)c2ccccn2)cc1 [Mepyramine maleate]
remaining activity at 3.75 µM ([1]; Well no.=1843): 98.2%
remaining activity at 1.25 µM ([2]; Well no.=1843): 98.2%

COc1ccc(O)cc1 [Mequinol]
remaining activity at 3.75 µM ([1]; Well no.=4736): 99.8%
remaining activity at 1.25 µM ([2]; Well no.=4736): 100%

S=c1[nH]cnc2nc[nH]c12 [Mercaptopurine]
remaining activity at 3.75 µM ([1]; Well no.=4771): 105%
remaining activity at 1.25 µM ([2]; Well no.=4771): 104%

C[C@@H](O)[C@H]1C(=O)N2C(C(=O)O)=C(S[C@@H]3CN[C@H](C(=O)N(C)C)C3)[C@H](C)[C@H]12 [Meropenem]
remaining activity at 3.75 µM ([1]; Well no.=1973): 103%
remaining activity at 1.25 µM ([2]; Well no.=1973): 103%

CN1CCCCC1CCN1c2ccccc2Sc2ccc([S+](C)[O-])cc21 (centres unmarked) [Mesoridazine besylate]
remaining activity at 3.75 µM ([1]; Well no.=2110): 99.5%
remaining activity at 1.25 µM ([2]; Well no.=2110): 97.7%

C#C[C@]1(O)CC[C@H]2[C@@H]3CCc4cc(OC)ccc4[C@H]3CC[C@@]21C [Mestranol]
remaining activity at 3.75 µM ([1]; Well no.=4768): 102%
remaining activity at 1.25 µM ([2]; Well no.=4768): 101%
